# According to patent publication US10131648B2, “Substituted benzothiophenyl derivatives as GPR40 agonists for the treatment of type II diabetes” (Janssen Pharmaceutica NV, priority 2014, dated 2018):
# pEC50: −log10 of the molar value.
# Target: human GPR40 (Homo sapiens (Human), UniProt O14842)
# Assay: GPR40 Calcium Flux Assay
# Assay type: cell-based
# Details: transfected HEK293 cells stably expressing human GPR40; Ca2+ mobilization; mean data; read-out: hGPR40 Ca^2+ Assay EC50
# Procedure: Compounds were tested in a calcium flux assay using transfected HEK293 cells stably expressing either human GPR40 or rat GPR40. Human GPR40 expressing cells were cultured in DMEM-High Glucose media supplemented with 10% fetal bovine serum, 1×L-Glutamine, 1×Penicillin/Streptomycin and 500 μg/mL G418. Rat GPR40 expressing cells were cultured in DMEM-High Glucose media supplemented with 10% fetal bovine serum and 1 μg/mL puromycin. Cells were plated into poly-D-lysine coated 384-well plates and cultured overnight in a 37° C. humidified tissue culture incubator under 5% CO2/[…] atmosphere. On the day of the experiment, the culture media was replaced with assay buffer (HBSS, 20 mM HEPES, 0.1% BSA) and the cells incubated at 37° C. for 1 h. Calcium-sensitive fluorescent dye (Fluo 8 No-Wash Calcium Dye, ABD Bioquest) was then added and the cells incubated for another 30 min at 37° C. followed by 15 min at room temperature while protected from the light. The cell plate and a plate of diluted compounds of Formula (I) were loaded into a fluorescent plate reader that added compounds onto the cells while measuring the fluorescence intensity of each well. The plate reader recorded fluorescence intensity at 1 second intervals for 8 min and provided the data for analysis in an Excel format. EC50 values were calculated using Prism (GraphPad) software.
# Chain of human GPR40 (O14842 whole entry): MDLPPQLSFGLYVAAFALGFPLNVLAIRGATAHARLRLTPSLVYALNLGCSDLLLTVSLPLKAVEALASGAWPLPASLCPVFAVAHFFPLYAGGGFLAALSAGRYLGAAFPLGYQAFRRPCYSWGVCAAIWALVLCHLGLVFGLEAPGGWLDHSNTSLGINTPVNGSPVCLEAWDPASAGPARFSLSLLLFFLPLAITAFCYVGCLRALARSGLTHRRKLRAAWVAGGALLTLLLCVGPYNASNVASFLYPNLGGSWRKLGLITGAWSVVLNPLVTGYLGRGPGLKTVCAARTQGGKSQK
row,Compound,pEC50
1,"Cc1cc(OC2CCS(=O)(=O)CC2)ccc1-c1csc2ccc(COc3ccc(C4(CC(=O)O)CC(=O)C4)cc3)cc12 [Cpd 33, 2-(1-(4-((3-(4-((1,1-Dioxidotetrahydro-2H-thiopyran-4-yl)oxy)-2-methylphenyl)benzo[b]thiophen-5-yl)methoxy)phenyl)-3-oxocyclobutyl)acetic acid]",7.82
2,"Cc1cc(OC2CCOCC2)ccc1-c1csc2ccc(COc3ccc(C4(CC(=O)O)CC(=O)C4)cc3)cc12 [Cpd 34, 2-(1-(4-((3-(2-Methyl-4-((tetrahydro-2H-pyran-4-yl)oxy)phenyl)benzo[b]thiophen-5-yl)methoxy)phenyl)-3-oxocyclobutyl)acetic acid]",7.60
3,CCOCCOc1ccc(-c2csc3ccc(COc4ccc([C@]5(CC(=O)O)C[C@@H](O)C5)cc4)cc23)c(C)c1 [Cpd 35],7.59
4,"Cc1cc(OC2CCS(=O)(=O)CC2)ccc1-c1csc2ccc(COc3ccc([C@]4(CC(=O)O)C[C@@H](O)C4)cc3)cc12 [Cpd 36, 2-((1r,3r)-1-(4-((3-(4-((1,1-Dioxidotetrahydro-2H-thiopyran-4-yl)oxy)-2-methylphenyl)benzo[b]thiophen-5-yl)methoxy)phenyl)-3-hydroxycyclobutyl)acetic acid]",7.37
5,"Cc1cc(OC2CCOCC2)ccc1-c1csc2ccc(COc3ccc([C@]4(CC(=O)O)C[C@@H](O)C4)cc3)cc12 [Cpd 37, 2-((1r,3r)-3-Hydroxy-1-(4-((3-(2-methyl-4-((tetrahydro-2H-pyran-4-yl)oxy)phenyl)benzo[b]thiophen-5-yl)methoxy)phenyl)cyclobutyl)acetic acid]",7.77
6,"Cc1ncccc1-c1csc2ccc(COc3ccc(C4(CC(=O)O)CC(=O)C4)cc3)cc12 [Cpd 38, 2-(1-(4-((3-(2-Methylpyridin-3-yl)benzo[b]thiophen-5-yl)methoxy)phenyl)-3-oxocyclobutyl)acetic acid]",7.72
7,Cc1ncccc1-c1csc2ccc(COc3ccc([C@]4(CC(=O)O)C[C@@H](O)C4)cc3)cc12 [Cpd 39],7.34
8,"Cc1cc(N2CC3(CCS3(=O)=O)C2)ccc1-c1csc2ccc(COc3ccc(C4(CC(=O)O)CC(=O)C4)cc3)cc12 [Cpd 40, 2-(1-(4-((3-(4-(1,1-Dioxido-1-thia-6-azaspiro[3.3]heptan-6-yl)-2-methylphenyl)benzo[b]thiophen-5-yl)methoxy)phenyl)-3-oxocyclobutyl)acetic acid]",7.82
9,"CC#C[C@@H](CC(=O)O)c1ccc(OCc2ccc3scc(-c4cc(S(C)(=O)=O)ccc4C)c3c2)cc1 [Cpd 41, (3S)-3-(4-((3-(2-Methyl-5-(methylsulfonyl)phenyl)benzo[b]thiophen-5-yl)methoxy)phenyl)hex-4-ynoic acid]",7.68
10,"CC#C[C@@H](CC(=O)O)c1ccc(OCc2ccc3scc(-c4ccc(S(C)(=O)=O)cc4C)c3c2)cc1 [Cpd 42, (3S)-3-(4-((3-(2-Methyl-4-(methylsulfonyl)phenyl)benzo[b]thiophen-5-yl)methoxy)phenyl)hex-4-ynoic acid]",7.92
11,"CC#C[C@@H](CC(=O)O)c1ccc(OCc2ccc3scc(-c4cc(NS(C)(=O)=O)ccc4C)c3c2)cc1 [Cpd 43, (3S)-3-(4-((3-(2-Methyl-5-(methylsulfonamido)phenyl)benzo[b]thiophen-5-yl)methoxy)phenyl)hex-4-ynoic acid]",7.51
12,"CC#C[C@@H](CC(=O)O)c1ccc(OCc2ccc3scc(-c4c(C)cccc4NS(C)(=O)=O)c3c2)cc1 [Cpd 44, (3S)-3-(4-((3-(2-Methyl-6-(methylsulfonamido)phenyl)benzo[b]thiophen-5-yl)methoxy)phenyl)hex-4-ynoic acid]",7.66
13,"CC#CC(CC(=O)O)c1ccc(OCc2ccc3scc(-c4ccccc4C)c3c2)nc1 (stereo not shown) [Cpd 45, 3-(6-((3-(2-Methylphenyl)benzo[b]thiophen-5-yl)methoxy)pyridin-3-yl)hex-4-ynoic acid]",7.89
